The source of these data is ChEMBL document CHEMBL1144949, “4-Phenyl-4H-pyrans as IK(Ca) channel blockers” (Bioorg Med Chem Lett, 2003).

Each structure is given as a SMILES string.

The first experiment has as its system C6-BU-1. Put plainly: IKCa channel inhibition was determined at 72% residual Rb+ efflux of pre loaded rat C6BU1 glioma cell in comparison with Nifedipine. The class given is functional, cell-based.
On to `CCCOC(=O)C1=C(C)OC(C)=C(C(=O)OCCC)C1c1ccc(Cl)cc1`, for which the IC50 worked out at 1000 nM.

For the next experiment, the system named is C6-BU-1. Put plainly: IKCa channel inhibition was determined measuring ionomycin-induced Rb+ efflux of pre loaded rat C6BU1 glioma cell in comparison with Nifedipine. The class given is functional, cell-based.
`COC(=O)C1=C(C)OC(C)=C(C(=O)OC)C1c1ccccc1Cl`: the IC50 was 100 nM. This lies in the sub-micromolar range.
Same read-out and setting: then `COC(=O)C1=C(C)OC(C)=C(C(=O)OC)C1c1ccc(Cl)cc1`, with 24 nM.
`COC(=O)C1=C(C)OC(C)=C(C(=O)OC)C1c1cccc(Cl)c1` had an IC50 of 26 nM. The IC50 values of the last two compounds are within 1.5-fold of each other.
On the same count and under the same terms, to `COC(=O)C1=C(C)OC(C)=C(C(=O)OC)C1c1ccccc1` belongs 160 nM.
Same read-out and setting: to `CCOC(=O)C1=C(C)OC(C)=C(C(=O)OCC)C1c1ccc(Cl)cc1` belongs 150 nM; to `COC(=O)C1=C(C)OC(C)=C(C(=O)OC)C1c1ccc(Cl)c(C(F)(F)F)c1`, 24 nM.
Still for that read-out and setting: to `CC(=O)C1=C(C)OC(C)=C(C(C)=O)C1c1ccc(Cl)cc1` belongs 220 nM; to `CCOC(=O)C1=C(C)OC(C)=C(C(=O)OC)C1c1ccc(Cl)cc1` (racemic), 35 nM.
`COC(=O)C1=C(C)OC(C)=C(C(C)=O)C1c1ccc(Cl)cc1` (racemic) returned a half-inhibitory concentration (IC50) of 75 nM.
With `COC(=O)C1=C(C)OC(C)=C(C(C)=O)C1c1ccc(Cl)c(C(F)(F)F)c1` (racemic), the concentration for half-maximal inhibition (IC50) stood at 8 nM.
On the same count and under the same terms, to `COC(=O)C1=C(C)NC(C)=C(C(=O)OC)C1c1ccccc1[N+](=O)[O-]` [NIFEDIPINE] belongs 1000 nM.

The test system of another experiment is C6-BU-1. Nature of the experiment: IKCa channel inhibition was determined measuring ionomycin-induced Rb+ efflux of pre loaded rat C6BU1 glioma cell in comparison with Nifedipine; NA=Inactive at 1000 nM. The class given is functional, cell-based.
As to `CCCCOC(=O)C1=C(C)OC(C)=C(C(=O)OCCCC)C1c1ccc(Cl)cc1`, the 50% inhibitory concentration (IC50) result was “Not Active”.
